The values below come from US8772323B2, “Benzoxazole- and tetrahydrobenzoxazole-substituted pyridazinones as GPR119 agonists” (Boehringer Ingelheim International GmbH, priority 2010, dated 2014).

The structures appear in SMILES notation. pEC50: −log10 of the molar value. Where a name gives a salt, the structure may show the parent alone.

Sequence of human GPR119 (Q8TDV5 whole entry): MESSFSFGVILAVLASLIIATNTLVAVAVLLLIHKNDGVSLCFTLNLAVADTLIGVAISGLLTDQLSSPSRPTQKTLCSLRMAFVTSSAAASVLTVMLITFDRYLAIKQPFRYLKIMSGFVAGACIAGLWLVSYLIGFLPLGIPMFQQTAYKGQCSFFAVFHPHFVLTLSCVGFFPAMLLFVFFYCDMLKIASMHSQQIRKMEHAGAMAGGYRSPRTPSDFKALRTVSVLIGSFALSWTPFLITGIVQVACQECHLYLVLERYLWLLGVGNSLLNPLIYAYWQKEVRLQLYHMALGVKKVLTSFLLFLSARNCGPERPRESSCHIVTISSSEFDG

This assay addresses human GPR119 (Homo sapiens (Human), UniProt Q8TDV5). Description: AlphaScreen cAMP assay in Min-6/hGPR119 cells (GPR119 activation, intracellular cAMP). The assay is classed as cell-based. The conditions noted are these: MIN6 cells stably transfected with human GPR119; 45 minutes' incubation at RT; AlphaScreen cAMP Assay Kit. The essentials: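 cAMP quantified by AlphaScreen after 45 min room-temperature compound exposure in HEPES/bicarbonate buffer, pH 7.4, containing 0.5 mM IBMX, 0.1% BSA and 1% DMSO final. Cells were Min-6 stably transfected with human GPR119, seeded 24 h beforehand.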
In general terms: Alpha assays give light when donor and acceptor beads are brought close together.
Usually pEC50 stands for the EC50 on a negative log10 scale, so that one unit is a factor of ten. A low value points to a high EC50. The molecule `COC(=O)c1ccc(-c2nc3ccc(C4=NNC(=O)CC4C)cc3o2)cc1` (stereo not drawn) [Example 90, methyl 4-[6-(4-methyl-6-oxo-1,4,5,6-tetrahydro-pyridazin-3-yl)-benzoxazol-2-yl]-benzoate] gave a negative-log EC50 (pEC50) of 6.12.
Then `CCC1CC(=O)NN=C1c1ccc2nc(-c3ccc(OCCN4CCN(C(=O)OC(C)(C)C)CC4)cc3)oc2c1` (stereo not drawn) [Example 165, terl-butyl 4-(2-{4-[6-(4-ethyl-6-oxo-1,4,5,6-tetrahydro-pyridazin-3-yl)-benzoxazol-2-yl]-phenoxy}-ethyl)-piperazine-1-carboxylate], with 6.93.
Then `CCCC[C@@H]1C(=O)NN=C(c2ccc3nc(-c4ccccc4)oc3c2)[C@H]1C` (relative stereo) [Example 197, trans-4-butyl-5-methyl-6-(2-phenyl-benzoxazol-6-yl)-4,5-dihydro-2H-pyridazin-3-one], with 5.95.
`C[C@H]1CC(c2ccc3nc(-c4ccccc4)oc3c2)=NNC1=O` [Example 2, (S)-4-methyl-6-(2-phenyl-benzoxazol-6-yl)-4,5-dihydro-2H-pyridazin-3-one] had a pEC50 of 6.10.
The value for `CC1OC(=O)NN=C1c1ccc2nc(-c3ccccc3)oc2c1` (stereo not drawn) [Example 81, 6-methyl-5-(2-phenyl-1,3-benzoxazol-6-yl)-3,6-dihydro-2H-1,3,4-oxadiazin-2-one] was 7.51; that for `CCC1CC(=O)NN=C1c1ccc2nc(-c3ccc(OCC(=O)NC)cc3)oc2c1` (stereo not drawn) [Example 43, 2-{4-[6-(4-ethyl-6-oxo-1,4,5,6-tetrahydro-pyridazin-3-yl)-benzoxazol-2-yl]-phenoxy}-N-methyl-acetamide] was 5.97.
`CCC1CC(=O)NN=C1c1ccc2nc(-c3ccc(OCCN4CCC5(CCCCC5)CC4)cc3)oc2c1` (stereo not drawn) [Example 245, 6-(2-{4-[2-(3-aza-spiro[5.5]undec-3-yl)-ethoxy]-phenyl}-benzoxazol-6-yl)-5-ethyl-4,5-dihydro-2H-pyridazin-3-one] gave a pEC50 of 6.36.
The value for `CCC1CC(=O)NN=C1c1ccc2nc(-c3cccc(OCCN4CCN(C(C)CC)CC4)c3)oc2c1` (stereo not drawn) [Example 157, 6-(2-{3-[2-(4-sec-butyl-piperazin-1-yl)-ethoxy]-phenyl}-benzoxazol-6-yl)-5-ethyl-4,5-dihydro-2H-pyridazin-3-one] was 5.69.
Then `C[C@@H]1CC(=O)NN=C1c1ccc2nc(-c3ccccc3)oc2c1` [Example 3, (R)-5-methyl-6-(2-phenyl-benzoxazol-6-yl)-4,5-dihydro-2H-pyridazin-3-one], with 7.09; and `CCC[C@H]1C(=O)NN=C(c2ccc3nc(-c4ccccc4)oc3c2)[C@@H]1C` [Example 196, (4R,5R)-5-methyl-6-(2-phenyl-1,3-benzoxazol-6-yl)-4-propyl-2,3,4,5-tetrahydropyridazin-3-one], with 7.41.
The molecule `CCC1CC(=O)NN=C1c1ccc2nc(-c3ccc(OCCN4CCN(C)CC4)cc3)oc2c1` (stereo not drawn) [Example 44, 5-ethyl-6-(2-{4-[2-(4-methyl-piperazin-1-yl)-ethoxy]-phenyl}-benzoxazol-6-yl)-4,5-dihydro-2H-pyridazin-3-one dihydrochloride] gave a pEC50 of 5.96.
The value for `CCC1CC(=O)NN=C1c1ccc2nc(-c3ccc(C(C)C)cc3)oc2c1` (stereo not drawn) [Example 175, 5-ethyl-6-[2-(4-isopropyl-phenyl)-benzoxazol-6-yl]-4,5-dihydro-2H-pyridazin-3-one] was 6.34; that for `CCCCC1CC(c2ccc3nc(-c4cccs4)oc3c2)=NNC1=O` (stereo not drawn) [Example 140, 4-butyl-6-(2-thiophen-2-yl-benzoxazol-6-yl)-4,5-dihydro-2H-pyridazin-3-one] was < 5.00; that for `O=C1CCC(c2ccc3nc(N4CCCCC4)oc3c2)=NN1` [Example 118, 6-(2-piperidin-1-yl-benzoxazol-6-yl)-4,5-dihydro-2H-pyridazin-3-one] was 5.43.
As to `CCC1CC(=O)NN=C1c1ccc2nc(-c3ccc(/C=C/c4ccccc4)cc3)oc2c1` (stereo not drawn) [Example 75, 5-ethyl-6-{2-[4-styryl-phenyl]-benzoxazol-6-yl}-4,5-dihydro-2H-pyridazin-3-one], the pEC50 was 6.42.
For the molecule `CC(C)(C)OC(=O)N1CCN(Cc2ccc(-c3nc4ccc(C5=NNC(=O)C6CC56)cc4o3)cc2)CC1` (stereo not drawn) [Example 23, tert.butyl 4-{4-[6-(5-oxo-3,4-diaza-bicyclo[4.1.0]hept-2-en-2-yl)-benzoxazol-2-yl]-benzyl}-piperazine-1-carboxylate], the pEC50 was 5.87.
The value for `CCC1CC(=O)NN=C1c1ccc2nc(-c3ccc(OCCN4CCC(C)CC4)cc3)oc2c1` (stereo not drawn) [Example 243, 5-ethyl-6-(2-{4-[2-(4-methyl-piperidin-1-yl)-ethoxy]-phenyl}-benzoxazol-6-yl)-4,5-dihydro-2H-pyridazin-3-one] was 6.71.
Then `O=C1NN=C(C2CCc3nc(-c4ccccc4)oc3C2)C2CC12` (stereo not drawn) [Example 130, 5-(2-phenyl-4,5,6,7-tetrahydro-benzoxazol-6-yl)-3,4-diaza-bicyclo[4.1.0]hept-4-en-2-one], with 6.09; and `CCC1CC(=O)NN=C1c1ccc2nc(-c3ccc(N(C)C)cc3)oc2c1` (stereo not drawn) [Example 96, 6-[2-(4-dimethylamino-phenyl)-benzoxazol-6-yl]-5-ethyl-4,5-dihydro-2H-pyridazin-3-one], with 7.38; and `O=C1NN=C(c2ccc3nc(-c4cccc(F)c4)oc3c2)C2CC12` (stereo not drawn) [Example 17, 5-[2-(3-fluoro-phenyl)-benzoxazol-6-yl]-3,4-diaza-bicyclo[4.1.0]hept-4-en-2-one], with 6.65.
In turn, `CCC1CC(=O)NN=C1c1ccc2nc(-c3ccc(OCc4cnco4)cc3)oc2c1` (stereo not drawn) [Example 63, 5-ethyl-6-{2-[4-(oxazol-5-ylmethoxy)-phenyl]-benzoxazol-6-yl}-4,5-dihydro-2H-pyridazin-3-one] had a pEC50 of 6.49.
The value for `CCC1CC(=O)NN=C1c1ccc2nc(-c3ccc(OCc4cccs4)cc3)oc2c1` (stereo not drawn) [Example 51, 5-ethyl-6-{2-[4-(thiophen-2-ylmethoxy)-phenyl]-benzoxazol-6-yl}-4,5-dihydro-2H-pyridazin-3-one] was 6.80; that for `CCC1CC(=O)NN=C1c1ccc2nc(-c3cccc(OCc4ccccc4)c3)oc2c1` (stereo not drawn) [Example 35, 6-[2-(3-benzyloxy-phenyl)-benzoxazol-6-yl]-5-ethyl-4,5-dihydro-2H-pyridazin-3-one] was 6.83.
Then `CCC1CC(=O)NN=C1c1ccc2nc(-c3ccc(OCc4cncnc4)cc3)oc2c1` (stereo not drawn) [Example 59, 5-ethyl-6-{2-[4-(pyrimidin-5-ylmethoxy)-phenyl]-benzoxazol-6-yl}-4,5-dihydro-2H-pyridazin-3-one], with 5.80.
Then `O=C1NN=C(c2ccc3nc(-c4ccccc4)oc3c2)C2CCC12` (stereo not drawn) [Example 10, 5-(2-phenyl-benzoxazol-6-yl)-3,4-diaza-bicyclo[4.2.0]oct-4-en-2-one], with 6.44; and `CC[C@H]1CC(=O)NN=C1c1ccc2nc(-c3ccc(OCC(C)N4CCCCC4)cc3)oc2c1` (stereo partly drawn) [Example 236, 5(S)-ethyl-6-{2-[4-(2-piperidin-1-yl-propoxy)-phenyl]-benzoxazol-6-yl}-4,5-dihydro-2H-pyridazin-3-one], with 5.96; and `Cc1ccc(-c2nc3ccc(C4=NNC(=O)CC4C)cc3o2)s1` (stereo not drawn) [Example 87, 5-methyl-6-[2-(5-methyl-thiophen-2-yl)-benzoxazol-6-yl]-4,5-dihydro-2H-pyridazin-3-one], with 7.00.
Take `CCC1CC(=O)NN=C1c1ccc2nc(-c3ccc(OCC4CCCCC4)cc3)oc2c1` (stereo not drawn) [Example 54, 6-[2-(4-cyclohexylmethoxy-phenyl)-benzoxazol-6-yl]-5-ethyl-4,5-dihydro-2H-pyridazin-3-one]: the pEC50 was 6.84.
Then `CCC1CC(=O)NN=C1c1ccc2nc(-c3ccc(OC4CCOC4)cc3)oc2c1` (stereo not drawn) [Example 181, 5-ethyl-6-{2-[4-(tetrahydro-furan-3-yloxy)-phenyl]-benzoxazol-6-yl}-4,5-dihydro-2H-pyridazin-3-one], with 6.81.
For the molecule `CCC1CC(=O)NN=C1c1ccc2nc(-c3ccc(OCc4ncccn4)cc3)oc2c1` (stereo not drawn) [Example 40, 5-ethyl-6-{2-[4-(pyrimidin-2-ylmethoxy)-phenyl]-benzoxazol-6-yl}-4,5-dihydro-2H-pyridazin-3-one], the pEC50 was 6.56.
Then `O=C1NCC(c2ccc3nc(-c4ccccc4)oc3c2)=NN1` [Example 143, 6-(2-phenyl-benzoxazol-6-yl)-4,5-dihydro-2H-[1,2,4]triazin-3-one], with 6.40; and `CCC1CC(=O)NN=C1c1ccc2nc(-c3ccc(Oc4ccccc4)cc3)oc2c1` (stereo not drawn) [Example 95, 5-ethyl-6-[2-(4-phenoxy-phenyl)-benzoxazol-6-yl]-4,5-dihydro-2H-pyridazin-3-one], with 7.17.
Then `CC1CC(=O)NN=C1c1ccc2nc(-c3cccc(CN)c3)oc2c1` (stereo not drawn) [Example 125, 6-{2-[3-(aminomethyl)phenyl]1,3-benzoxazol-6-yl}-5-methyl-2,3,4,5-tetrahydropyridazin-3-one], with 5.80; and `CC[C@H]1C(c2ccc3nc(-c4ccc(OC(C)C)cc4)oc3c2)=NNC(=O)[C@@H]1C` [Example 208, (4R,5R)-5-ethyl-4-methyl-6-{2-[4-(propan-2-yloxy)phenyl]-1,3-benzoxazol-6-yl}-2,3,4,5-tetrahydropyridazin-3-one], with 7.06.
Then `CCC1CC(=O)NN=C1c1ccc2nc(-c3ccc(OC(C)(C)CN4CCOCC4)cc3)oc2c1` (stereo not drawn) [Example 231, 6-{2-[4-(1,1-dimethyl-2-morpholin-4-yl-ethoxy)-phenyl]-benzoxazol-6-yl}-5-ethyl-4,5-dihydro-2H-pyridazin-3-one], with 6.92.
The molecule `Cc1cc(=O)[nH]nc1-c1ccc2nc(-c3cccs3)oc2c1` [Example 256, 5-methyl-6-(2-thiophen-2-yl-benzoxazol-6-yl)-2H-pyridazin-3-one] had a negative logarithm of the EC50 (pEC50) of 5.03.
